Source: patent US9617276B2, “Compounds and methods for treating AIDS and HIV infections” (priority 2009, dated 2017)
Like-named read-outs stand apart in the source and are kept apart here.

Assays:
HIV-2EHO = test: drug susceptibility, MT-2 cells, MTT assay, HIV-2EHO; type: cell-based
Experimental: (§1) All assays were performed in duplicate or triplicate. […] All assays were performed in duplicate or triplicate.
(§2) Each selectivity index denotes a ratio of CC50 to EC50 against HIV-1LAI N.D., not done.

HIV-1MDR/B = type: cell-based
Experimental: (§3) The susceptibility of HIV-1LAI and primary HIV-1 isolates to various drugs were determined as described previously (Koh et al. 2003 Antimicrob Agents Chemother 47:3123-9). Briefly, MT-2 cells (2×10^4/ml) were exposed to 100 50% tissue culture infectious doses (TCID50S) of HIV-1LAI, in the presence or absence of various concentrations of drugs in 96-well microculture plates and were incubated at 37° C. for 7 days. After 100 μl of the medium was removed from each well, 3-(4,5-dimetylthiazol-2-yl)-2,5-diphenyltetrazolium bromide (MTT) solution (10 μl, 7.5 mg/ml in phosphate-buffered saline) was added to each well in the plate, followed by incubation at 37° C. for 3 h. […] All assays were performed in duplicate or triplicate. To determine the susceptibility of primary HIV-1 isolates to drugs, phytohemagglutinin-activated peripheral blood mononuclear cells (PHA-PBMCs; 106/ml) were exposed to 50 TCID50S of each. The target cells were exposed to HIV-1104pre or drug-resistant HIV-1 in the presence or absence of various concentrations of drugs and were incubated for 7 days. Upon the conclusion of the culture, the amounts of p24 Gag protein in the supernatants were determined using a fully automated chemiluminescent enzyme immunoassay system (Lumipulse F; Fujirebio Inc., Tokyo, Japan) (Maeda et al. 2001 J Biol Chem 276:35194-200). To determine the drug susceptibility of certain laboratory HIV-1 strains, MT-4 cells were used as target cells. In brief, MT-4 cells (10^5/ml) were exposed to 100 TCID50S of drug-resistant HIV-1 strains in the presence or absence of various concentrations of drugs and on day 7 of culture, the supernatant was harvested and the amounts of p24 Gag protein were determined. […] All assays were performed in duplicate or triplicate.
(§4) These clinical strains contained 9 to 14 amino acid substitutions in the protease-encoding region, which have reportedly been associated with HIV-1 resistance to various PIs.
(§5) Amino acid substitutions identified in the protease-encoding region compared to the consensus type B sequence cited from the Los Alamos database include L63P in HIV-1ERS104pre; L10I, K14R, L33I, M36I, M46I, F53I, K55R, I62V, L63P, A71V, G73S, V82A, L90M, and I93L in HIV-1MDR/B; L10I, I15V, K20R, L24I, M36I, M46L, I54V, I62V, L63P, K70Q, V82A, and L89M in HIV-1MDR/C; L10I, V11I, T12E, I15V, L19I, R41K, M46L, L63P, A71T, V82A, and L90M in HIV-1MDR/G; L10I, K14R, R41K, M46L, I54V, L63P, A71V, V82A, L90M, I93L in HIV-1MDR/TM; L10I, K43T, M46L, I54V, L63P, A71V, V82A, L90M, and Q92K in HIV-1MDR/MM; L10I, L24I, I33F, E35D, M36I, N37S, M46L, I54V, R57K, I62V, L63P, A71V, G73S, and V82A in HIV-1MDR/JSL. HIV-1ERS104pre served as a source of wild-type HIV-1. EC50s were determined by using PHA-PBMs as target cells, and inhibition of p24 Gag protein production by each drug was used as an end point. Numbers in parentheses represent n-fold changes of EC50s for each isolate compared to EC50s for wild-type HIV-1ERS104pre.

HIV-1MDR/C = type: cell-based
Experimental: as §3, §4, §5

HIV-1MDR/TM = type: cell-based
Experimental: as §3, §4, §5

HIV-1MDR/G = type: cell-based
Experimental: as §3, §4, §5

[1] = system: multidrug-resistant clinical HIV-1 isolates (HIV-1MDR); test: microbe, parasite or virus in culture; type: cell-based; conditions: Human immunodeficiency virus 1, read-out: EC50 with multidrug-resistant clinical HIV-1 isolates (mostly)
Experimental: as §3, §4, §5

HIV-1LAI = test: drug susceptibility, MT-2 cells, MTT assay, HIV-1LAI; type: cell-based
Experimental: as §1, §2

cytotoxicity CC50 = type: cell-based, Human; conditions: human
[2] = system: HIV-1ERS104pre (wild-type); test: p24 Gag inhibition in PHA-PBMCs, HIV-1ERS104pre; type: cell-based; conditions: mean ± 1 SD
Experimental: as §3, §4, §5

HIV-1SQV5μM = test: microbe, parasite or virus in culture; type: cell-based; conditions: for EC50: Human immunodeficiency virus 1, MT4, read-out: EC50 (μM), HIV-1SQV5 μM
Experimental: as §3
(§6) Numbers in parentheses represent n-fold changes in EC50s for each isolate compared to the EC50s for wild-type HIV-1NL4-3.

HIV-1NFV5μM = test: microbe, parasite or virus in culture; type: cell-based; conditions: for EC50: Human immunodeficiency virus 1, MT4, read-out: EC50 (μM), HIV-1NPV5 μM
Experimental: as §3, §6

HIV-1LPV5μM = test: microbe, parasite or virus in culture; type: cell-based; conditions: for EC50: Human immunodeficiency virus 1, MT4, read-out: EC50 (μM), HIV-1LPV5 μM
Experimental: as §3, §6

HIV-2ROD = test: drug susceptibility, MT-2 cells, MTT assay, HIV-2ROD; type: cell-based
Experimental: as §1, §2

HIV-1 = test: antiviral assay (IC50); type: cell-based
Experimental: The inhibitory potencies of acyclic and cyclic inhibitors were measured by the assay protocol of Toth and Marshall (Toth, M. V.; Marshall, G. R. A simple, continuous fluorometric assay for HIV protease. Int. J. Pep. Protien Res. 1990, 36, 544-55).

[3] = Human immunodeficiency virus 2, MT2, MT-2 cells, MTT assay, mean ± 1 SD, read-out: EC50 (μM) for HIV-2EHO
[4] = compared to wild-type HIV-1ERS104pre
[5] = Human immunodeficiency virus 1, MT2, MT-2 cells, MTT assay, mean ± 1 SD, read-out: EC50 (μM) for HIV-1LAI
[6] = compared to wild-type HIV-1NL4-3
[7] = Human immunodeficiency virus 2, MT2, MT-2 cells, MTT assay, mean ± 1 SD, read-out: EC50 (μM) for HIV-2ROD

## Cc1cccc(C)c1OCC(=O)N[C@@H](Cc1ccccc1)[C@@H](O)C[C@H](Cc1ccccc1)NC(=O)[C@H](C(C)C)N1CCCNC1=O [LPV, lopinavir]
HIV-2EHO; [3]
  EC50: 0.035 ± 0.025 µM
HIV-1MDR/B; PHA-PBMCs, p24 Gag
  EC50 (μM), HIV-1MDR/B (SI): > 1 µM
HIV-1MDR/B; [4]
  n-fold change of EC50, HIV-1MDR/B: > 29
HIV-1MDR/C; PHA-PBMCs, p24 Gag
  EC50 (μM), HIV-1MDR/C (SI): > 1 µM
HIV-1MDR/C; [4]
  n-fold change of EC50, HIV-1MDR/C: > 29
HIV-1MDR/TM; PHA-PBMCs, p24 Gag
  EC50 (μM), HIV-1MDR/TM (SI): > 1 µM
HIV-1MDR/TM; [4]
  n-fold change of EC50, HIV-1MDR/TM: > 29
HIV-1MDR/G; PHA-PBMCs, p24 Gag
  EC50 (μM), HIV-1MDR/G (SI): 0.26 ± 0.04 µM
HIV-1MDR/G; [4]
  n-fold change of EC50, HIV-1MDR/G: (8)
[1]
  EC50: > 1000 nM
HIV-1LAI; [5]
  EC50: 0.039 ± 0.006 µM
HIV-1LAI; ratio of CC50 to EC50 against HIV-1LAI
  Selectivity Index: >2,560
Cytotoxicity CC50
  CC50: > 100000 nM
[2]
  EC50 (μM), HIV-1ERS104pre (wild-type SI): 0.034 ± 0.002 µM
HIV-1SQV5μM
  EC50: 0.12 ± 0.02 µM
HIV-1SQV5μM; [6]
  n-fold change in EC50, HIV-1SQV5 μM: (2)
HIV-1NFV5μM
  EC50: 0.037 ± 0.004 µM
HIV-1NFV5μM; [6]
  n-fold change in EC50, HIV-1NPV5 μM: (1)
HIV-1LPV5μM
  EC50: > 1 µM
HIV-1LPV5μM; [6]
  n-fold change in EC50, HIV-1LPV5 μM: > 22
HIV-2ROD; [7]
  EC50: 0.028 ± 0.004 µM

## COc1ccc2c(c1)OCCC=CCCCCN(CC(O)C(Cc1ccccc1)NC(=O)OC1COC3OCCC13)S2(=O)=O (centres unmarked) [Compound 14c]
HIV-2EHO; Human immunodeficiency virus 2, MT2, read-out: EC50 (μM) for HIV-2EHO
  EC50: 0.01 ± 0.007 µM
HIV-1; Human immunodeficiency virus 1, Table 2, read-out: IC50
  IC50: < 10 nM
HIV-1; Human immunodeficiency virus 1, text b167
  IC50: 2 nM
HIV-1; Human immunodeficiency virus 1, read-out: IC50
  IC50: 2 nM
HIV-1LAI; Human immunodeficiency virus 1, MT2, read-out: EC50 (μM) for HIV-1LAI
  EC50: 0.002 ± 0.001 µM
Cytotoxicity CC50
  CC50: 48800 ± 1300 nM
HIV-1SQV5μM
  EC50: 0.02 ± 0.009 µM
HIV-1NFV5μM
  EC50: 0.04 ± 0.017 µM
HIV-1LPV5μM
  EC50: 0.035 ± 0.005 µM
HIV-2ROD; Human immunodeficiency virus 2, MT2, read-out: EC50 (μM) for HIV-2ROD
  EC50: 0.017 ± 0.001 µM

## CC(C)CN(C[C@@H](O)[C@H](Cc1ccccc1)NC(=O)O[C@H]1CCOC1)S(=O)(=O)c1ccc(N)cc1 [APV, Amprenavir]
HIV-2EHO; [3]
  EC50: 0.12 ± 0.03 µM
HIV-1LAI; [5]
  EC50: 0.024 ± 0.008 µM
Cytotoxicity CC50; MT-2 cells, read-out: CC50
  CC50: > 100000 nM
HIV-1SQV5μM
  EC50: 0.18 ± 0.1 µM
HIV-1NFV5μM
  EC50: 0.028 ± 0.005 µM
HIV-1LPV5μM
  EC50: 0.26 ± 0.07 µM
HIV-2ROD; [7]
  EC50: 0.42 ± 0.1 µM
